#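 GI50 = concentration required for 50% inhibition of growth. Definition used: TGI = concentration required for complete inhibition of growth.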
# Key:
# Test in all cases: DTP human tumour cell line panel, 384-well format
# A498 renal = tested on: A498 renal
# A549 NSCLC = tested on: A549 NSCLC
# ACHN renal = tested on: ACHN renal
# BT-549 breast = tested on: BT-549 breast
# CAKI-1 renal = tested on: CAKI-1 renal
# COLO 205 colon = tested on: COLO 205 colon
# DU-145 prostate = tested on: DU-145 prostate
# EKVX NSCLC = tested on: EKVX NSCLC
# HCC-2998 colon = tested on: HCC-2998 colon
# HCT-116 colon = tested on: HCT-116 colon
# HCT-15 colon = tested on: HCT-15 colon
# HL-60(TB) leukemia = tested on: HL-60(TB) leukemia
# HOP-62 NSCLC = tested on: HOP-62 NSCLC
# HOP-92 NSCLC = tested on: HOP-92 NSCLC
# HS 578T breast = tested on: HS 578T breast
# HT29 colon = tested on: HT29 colon
# IGROV1 ovarian = tested on: IGROV1 ovarian
# KM12 colon = tested on: KM12 colon
# LOX IMVI melanoma = tested on: LOX IMVI melanoma
# M14 melanoma = tested on: M14 melanoma
# MALME-3M melanoma = tested on: MALME-3M melanoma
# MCF7 breast = tested on: MCF7 breast
# MDA-MB-231 breast = tested on: MDA-MB-231 breast
# MDA-MB-435 melanoma = tested on: MDA-MB-435 melanoma
# MDA-MB-468 breast = tested on: MDA-MB-468 breast
# MOLT-4 leukemia = tested on: MOLT-4 leukemia
# NCI-H226 lung = tested on: NCI-H226 lung
# NCI-H23 lung = tested on: NCI-H23 lung
# NCI-H322M lung = tested on: NCI-H322M lung
# NCI-H460 NSCLC = tested on: NCI-H460 NSCLC
# NCI-H522 lung = tested on: NCI-H522 lung
# NCI/ADR-RES ovarian = tested on: NCI/ADR-RES ovarian
# OVCAR-3 ovarian = tested on: OVCAR-3 ovarian
# OVCAR-4 ovarian = tested on: OVCAR-4 ovarian
# OVCAR-5 ovarian = tested on: OVCAR-5 ovarian
# OVCAR-8 ovarian = tested on: OVCAR-8 ovarian
# PC-3 prostate = tested on: PC-3 prostate
# RPMI-8226 leukemia = tested on: RPMI-8226 leukemia
# RXF 393 renal = tested on: RXF 393 renal
# SF-268 CNS = tested on: SF-268 CNS
# SF-295 CNS = tested on: SF-295 CNS
# SF-539 CNS = tested on: SF-539 CNS
# SK-MEL-28 melanoma = tested on: SK-MEL-28 melanoma
# SK-MEL-5 melanoma = tested on: SK-MEL-5 melanoma
# SK-OV-3 ovarian = tested on: SK-OV-3 ovarian
# SN12C renal = tested on: SN12C renal
# SNB-19 CNS = tested on: SNB-19 CNS
# SNB-75 CNS = tested on: SNB-75 CNS
# SR leukemia = tested on: SR leukemia
# T-47D breast = tested on: T-47D breast
# TK-10 renal = tested on: TK-10 renal
# U251 glioblastoma = tested on: U251 glioblastoma
# UACC-257 melanoma = tested on: UACC-257 melanoma
# UACC-62 melanoma = tested on: UACC-62 melanoma
smiles,measurement,setting,value
Cn1ncc(Cl)c1-c1cc(C(=O)N[C@H](CN)Cc2cccc(F)c2)sc1Cl,GI50,A498 renal,126 nM
same,TGI,A498 renal,1240 nM
same,GI50,A549 NSCLC,4010 nM
same,TGI,A549 NSCLC,16400 nM
same,GI50,ACHN renal,3460 nM
same,TGI,ACHN renal,15500 nM
same,GI50,BT-549 breast,819 nM
same,TGI,BT-549 breast,2450 nM
same,GI50,CAKI-1 renal,2760 nM
same,TGI,CAKI-1 renal,14000 nM
same,GI50,COLO 205 colon,1120 nM
same,TGI,COLO 205 colon,2360 nM
same,GI50,DU-145 prostate,3380 nM
same,TGI,DU-145 prostate,14600 nM
same,GI50,EKVX NSCLC,2940 nM
same,TGI,EKVX NSCLC,12500 nM
same,GI50,HCC-2998 colon,558 nM
same,TGI,HCC-2998 colon,2010 nM
same,GI50,HCT-116 colon,2280 nM
same,TGI,HCT-116 colon,7530 nM
same,GI50,HCT-15 colon,1760 nM
same,TGI,HCT-15 colon,13100 nM
same,GI50,HL-60(TB) leukemia,1320 nM
same,TGI,HL-60(TB) leukemia,2700 nM
same,GI50,HOP-62 NSCLC,2310 nM
same,TGI,HOP-62 NSCLC,6220 nM
same,GI50,HOP-92 NSCLC,2090 nM
same,TGI,HOP-92 NSCLC,8600 nM
same,GI50,HS 578T breast,1010 nM
same,TGI,HS 578T breast,2560 nM
same,GI50,HT29 colon,1150 nM
same,TGI,HT29 colon,2890 nM
same,GI50,IGROV1 ovarian,43.6 nM
same,TGI,IGROV1 ovarian,534 nM
same,GI50,KM12 colon,532 nM
same,TGI,KM12 colon,2210 nM
same,GI50,LOX IMVI melanoma,1750 nM
same,TGI,LOX IMVI melanoma,3230 nM
same,GI50,M14 melanoma,1710 nM
same,TGI,M14 melanoma,3150 nM
same,GI50,MALME-3M melanoma,1300 nM
same,TGI,MALME-3M melanoma,2590 nM
same,GI50,MCF7 breast,460 nM
same,TGI,MCF7 breast,2000 nM
same,GI50,MDA-MB-231 breast,5950 nM
same,TGI,MDA-MB-231 breast,18800 nM
same,GI50,MDA-MB-435 melanoma,2010 nM
same,TGI,MDA-MB-435 melanoma,5430 nM
same,GI50,MDA-MB-468 breast,187 nM
same,TGI,MDA-MB-468 breast,1950 nM
same,GI50,MOLT-4 leukemia,150 nM
same,TGI,MOLT-4 leukemia,1120 nM
same,GI50,NCI-H226 lung,2930 nM
same,TGI,NCI-H226 lung,9220 nM
same,GI50,NCI-H23 lung,3200 nM
same,TGI,NCI-H23 lung,11700 nM
same,GI50,NCI-H322M lung,2150 nM
same,TGI,NCI-H322M lung,10900 nM
same,GI50,NCI-H460 NSCLC,427 nM
same,TGI,NCI-H460 NSCLC,2670 nM
same,GI50,NCI-H522 lung,1900 nM
same,TGI,NCI-H522 lung,5360 nM
same,GI50,NCI/ADR-RES ovarian,7070 nM
same,TGI,NCI/ADR-RES ovarian,19900 nM
same,GI50,OVCAR-3 ovarian,2020 nM
same,TGI,OVCAR-3 ovarian,10500 nM
same,GI50,OVCAR-4 ovarian,6000 nM
same,TGI,OVCAR-4 ovarian,18900 nM
same,GI50,OVCAR-5 ovarian,1620 nM
same,TGI,OVCAR-5 ovarian,4290 nM
same,GI50,OVCAR-8 ovarian,2110 nM
same,TGI,OVCAR-8 ovarian,5320 nM
same,GI50,PC-3 prostate,300 nM
same,TGI,PC-3 prostate,2690 nM
same,GI50,RPMI-8226 leukemia,1760 nM
same,TGI,RPMI-8226 leukemia,3180 nM
same,GI50,RXF 393 renal,680 nM
same,TGI,RXF 393 renal,2560 nM
same,GI50,SF-268 CNS,4500 nM
same,TGI,SF-268 CNS,15300 nM
same,GI50,SF-295 CNS,1070 nM
same,TGI,SF-295 CNS,2330 nM
same,GI50,SF-539 CNS,337 nM
same,TGI,SF-539 CNS,2140 nM
same,GI50,SK-MEL-28 melanoma,1330 nM
same,TGI,SK-MEL-28 melanoma,2670 nM
same,GI50,SK-MEL-5 melanoma,1390 nM
same,TGI,SK-MEL-5 melanoma,2700 nM
same,GI50,SK-OV-3 ovarian,737 nM
same,TGI,SK-OV-3 ovarian,8040 nM
same,GI50,SN12C renal,2670 nM
same,TGI,SN12C renal,14400 nM
same,GI50,SNB-19 CNS,1740 nM
same,TGI,SNB-19 CNS,10200 nM
same,GI50,SNB-75 CNS,449 nM
same,TGI,SNB-75 CNS,3660 nM
same,GI50,SR leukemia,1350 nM
same,TGI,SR leukemia,2640 nM
same,GI50,T-47D breast,274 nM
same,TGI,T-47D breast,2050 nM
same,GI50,TK-10 renal,1180 nM
same,TGI,TK-10 renal,5470 nM
same,GI50,U251 glioblastoma,1110 nM
same,TGI,U251 glioblastoma,2430 nM
same,GI50,UACC-257 melanoma,1460 nM
same,TGI,UACC-257 melanoma,2790 nM
same,GI50,UACC-62 melanoma,1290 nM
same,TGI,UACC-62 melanoma,2970 nM
